These results are taken from patent publication US4307104A, “Guanidine compounds” (Smith Kline & French Laboratories Limited, priority 1979, dated 1981).

The test system of this assay is histamine H2 -receptors. As to the kind of experiment: inhibition of histamine-stimulated secretion of gastric acid from the lumen-perfused stomachs of rats anaesthetised with urethane. The class given is in vivo. To be noted: i.v., lumen-perfused stomach of urethane-anaesthetised rats.

Consider `N=C(N)Nc1nc(CSCCNC2=C([N+](=O)[O-])CCCN2)cs1` [Example 1, 2-[2-(2-Guanidino-4-thiazolylmethylthio)ethylamino-]-3-nitro-1,4,5,6-tetrahydropyridine], for which the “dose causing 50% inhibition of maximal acid secretion” value is reported as “less than 0.1 micromole kh^-1”.
